Experimental data from patent US9744146B2, “Method for alleviating disturbance of bile acid metabolism, amino acid metabolism, and/or gut microbiota metabolism” (China Medical University, priority 2013, dated 2017).

What was measured:
bile acid metabolism = experiment: Analysis of bile acid metabolism markers (glycine, taurine) by NMR in serum and urine of high-fat-diet mice; format: in vivo, C57BL6/J male mice; conditions: gallic acid 100 mg/kg orally daily (the third group), 16-week-old
Method: (§1) The gallic acid is purchased from Sigma, U.S.A.
(§2) In addition, to ensure experimental stability, the mice in the first and second group were given water at a volume the same as that in the third and fourth group. At the age of 16-week-old, the urine of the mice was collected, and the concentration of the blood glucose and serum insulin were measured. Then, the mice were sacrificed, and the serum was collected for the analysis of metabolic markers. The liver was weighted and photographed.
(§3) The collected blood and urine were analyzed by a nuclear magnetic resonance spectrum. The steps are shown as follows. • (1) Urine: The urine (500 μl), PBS (50 μl) (81:19 vol/vol, comprising 0.2 M NaHPO4 and 0.2 M NaH2PO4, pH=7.4), 10% deuteroxide, and 0.03% trimethylsilyl propionate (TSP) were mixed in a micro-centrifuge tube and centrifuged with 13000 rpm for 20 minutes at 4° C. The supernatant (500 μl) was collected and analyzed by 600 MHz nuclear magnetic resonance (NMR, Bruker AVANCE 600AV) at 25° C. The 1D NOESY FID signal was transferred to a one-dimensional NMR spectrum of graphing through Fourier transform. • (2) Blood: The serum (250 μl) and deuteroxide (350 μl) were mixed in a micro-centrifuge tube and centrifuged with 13000 rpm for 20 minutes at 4° C. The supernatant (500 μl) was collected and analyzed. The metabolites in serum were analyzed by using NMR sequence CPMG.
It has been known that the concentration of taurine and glycine can be used as markers of bile acid metabolism (see Miyazaki T, Matsuzaki Y (2012) Taurine and liver diseases: a focus on the heterogeneous protective properties of taurine. Amino Acids, which is entirely incorporated hereinto by reference). Therefore, the integrated area of the spectrum of glycine (chemical shift 3.56 ppm singlet) and the taurine (chemical shift 3.40 ppm triplet) in the blood and urine were analyzed.

[1] = system: nonalcoholic fatty liver and insulin resistance in mice induced by the high-fat-diet; experiment: Liver weight, blood glucose, serum insulin and liver pathology in high-fat-diet mice; format: in vivo, C57BL6/J male mice; conditions: gallic acid 50 or 100 mg/kg orally daily, compared to the high-fat-diet group
Method: as §1, §2

amino acid metabolism = experiment: Analysis of amino acid metabolism markers by NMR in serum of high-fat-diet mice; format: in vivo, C57BL6/J male mice; conditions: gallic acid 100 mg/kg orally daily (the third group)
Method: as §1, §2, §3
It has been known that the concentration of isoleucine, leucine, valine, glutamate, glutamine, tyrosine, phenylalanine, alanine, lysine, arginine and ornithine can be used as the markers of amino acid metabolism (see Rare Disease Diet Control Manual—amino acid metabolism, Foundation for Rare Disorders, pages 18, 22, 26-31, which is entirely incorporated hereinto by reference). Therefore, the integrated area of the spectrum of isoleucine (chemical shift 1.01 ppm dublet), the leucine (chemical shift 0.97 ppm triplet) and the valine (chemical shift 1.04 ppm doublet) in the serum were analyzed.

[2] = system: gut microbiota metabolism; experiment: Analysis of gut microbiota metabolism markers by NMR in serum and urine of high-fat-diet mice; format: in vivo, C57BL6/J male mice; conditions: gallic acid 100 mg/kg orally daily (the third group)
Method: as §1, §2, §3
It has been known that the concentration of isobutyric acid, butanoic acid, hippuric acid, dimethylamine and trimethylamine can be used as the markers of the gut microbiota metabolism and reflect the change of gut microbiota. Therefore, the integrated area of the spectrum of isobutyric acid, butanoic acid, hippuric acid, dimethylamine and trimethylamine in the blood and urine were analyzed.

mouse = conditions: cited from earlier work

Structure (SMILES): O=C(O)c1cc(O)c(O)c(O)c1 [gallic acid]
- glycine, integrated area of NMR spectrum (bile acid metabolism; serum): 142.91 ± 10.60 the normalized and transferred NMR signal × 10^3
- glycine, integrated area of NMR spectrum (bile acid metabolism; urine): 206.51 ± 8.45 the normalized and transferred NMR signal × 10^3
- taurine, integrated area of NMR spectrum (bile acid metabolism; urine): 489.81 ± 125.78 the normalized and transferred NMR signal × 10^3
- effect on nonalcoholic fatty liver induced by the high-fat-diet ([1]; FIGS. 1, 4A, 4B): ameliorating
- effect on insulin resistance induced by the high-fat-diet ([1]; FIGS. 2, 3): ameliorating
- alanine, integrated area of NMR spectrum (amino acid metabolism): 96.11 ± 6.07 the normalized and transferred NMR signal × 10^3
- arginine, integrated area of NMR spectrum (amino acid metabolism): 30.08 ± 0.78 the normalized and transferred NMR signal × 10^3
- glutamate, integrated area of NMR spectrum (amino acid metabolism): 39.50 ± 1.39 the normalized and transferred NMR signal × 10^3
- glutamine, integrated area of NMR spectrum (amino acid metabolism): 40.61 ± 3.88 the normalized and transferred NMR signal × 10^3
- isoleucine, integrated area of NMR spectrum (amino acid metabolism): 32.29 ± 3.25 the normalized and transferred NMR signal × 10^3
- leucine, integrated area of NMR spectrum (amino acid metabolism): 109.28 ± 2.36 the normalized and transferred NMR signal × 10^3
- lysine, integrated area of NMR spectrum (amino acid metabolism): 74.93 ± 2.24 the normalized and transferred NMR signal × 10^3
- ornithine, integrated area of NMR spectrum (amino acid metabolism): 36.39 ± 1.45 the normalized and transferred NMR signal × 10^3
- phenylalanine, integrated area of NMR spectrum (amino acid metabolism): 6.44 ± 0.39 the normalized and transferred NMR signal × 10^3
- tyrosine, integrated area of NMR spectrum (amino acid metabolism): 6.78 ± 0.85 the normalized and transferred NMR signal × 10^3
- valine, integrated area of NMR spectrum (amino acid metabolism): 68.26 ± 3.46 the normalized and transferred NMR signal × 10^3
- isobutyric acid, integrated area of NMR spectrum ([2]; serum): 22.49 ± 1.55
- butanoic acid, integrated area of NMR spectrum ([2]; urine): 187.08 ± 10.46
- dimethylamine, integrated area of NMR spectrum ([2]; urine): 197.9 ± 9.20
- hippuric acid, integrated area of NMR spectrum ([2]; urine): 10.33 ± 0.90
- trimethylamine, integrated area of NMR spectrum ([2]; urine): 269.21 ± 76.77
- No Observed Adverse Effect Level (NOAEL) (mouse): greater than 5000 mg/kg
